Results on eleven compounds are retold here after ChEMBL document CHEMBL4610029, “Essential structure of orexin 1 receptor antagonist YNT-707, part V: Structure-activity relationship study of the substituents on the 17-amino group” (Bioorg Med Chem Lett, 2020).

The Ki is a measure of affinity in units of concentration, obtained from inhibition or displacement. A word on the inhibition: it is how much of the control response was suppressed.

Test [1] concerns the target T1, Orexin/Hypocretin receptor type 1 (Homo sapiens, UniProt O43613).
T1 sequence (O43613 whole entry): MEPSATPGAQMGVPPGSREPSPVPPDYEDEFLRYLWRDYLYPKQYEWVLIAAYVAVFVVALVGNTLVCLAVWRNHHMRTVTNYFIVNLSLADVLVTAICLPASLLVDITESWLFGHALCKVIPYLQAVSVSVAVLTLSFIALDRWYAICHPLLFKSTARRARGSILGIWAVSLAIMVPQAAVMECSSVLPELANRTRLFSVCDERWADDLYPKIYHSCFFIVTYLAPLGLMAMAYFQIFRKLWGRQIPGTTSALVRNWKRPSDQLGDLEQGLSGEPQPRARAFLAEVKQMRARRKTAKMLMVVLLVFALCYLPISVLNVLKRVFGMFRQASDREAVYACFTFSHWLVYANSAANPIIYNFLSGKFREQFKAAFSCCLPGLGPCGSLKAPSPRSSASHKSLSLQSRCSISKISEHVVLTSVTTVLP
The test can be described thus: Antagonist activity at OX1R (unknown origin) assessed as inhibition of orexin A-induced intracellular Ca2+ release by cell-based assay. It counts as functional.

Test [2] deals with T2, Orexin/Hypocretin receptor type 1 (Homo sapiens) (UniProt O43613).
T2 sequence (whole entry): T1 sequence (O43613 whole entry)
The experiment in a line: Antagonist activity at OX1R (unknown origin) assessed as inhibition of orexin A-induced intracellular Ca2+ release at 10 uM by cell-based assay relative to control. It counts as functional.

As to `COc1ccc2c3c1O[C@@H]1C3[C@@](O)(CC[C@H]1N(C)C(=O)/C=C/c1ccoc1)[C@H](NCC1CC1)C2` (stereo partly specified), in test [1], the inhibitory constant (Ki) result is “Not Active”.
As for `COc1ccc2c3c1O[C@@H]1C3[C@]3(CC[C@H]1N(C)C(=O)/C=C/c1ccoc1)OS(=O)(=O)N(CC1CC1)[C@@H]3C2` (stereo partly specified), the Ki in test [1] (read-out: Ki) came out at 1.2 µM.
For `COc1ccc2c3c1O[C@@H]1C3[C@@](O)(CC[C@H]1N(C)C(=O)/C=C/c1ccoc1)[C@H](N(CC1CC1)C(C)=O)C2` (stereo partly specified), the inhibition in test [2] was 48%.
Consider `COc1ccc2c3c1O[C@@H]1C3[C@@H](CC[C@H]1N(C)C(=O)/C=C/c1ccoc1)[C@H](N(C)CC1CC1)C2` (stereo partly specified), for which, in test [1] (read-out: Ki), the Ki was found to be 0.0501 µM.
On the same count and under the same terms, as for `COc1ccc2c3c1O[C@@H]1C3[C@@H](CC[C@H]1N(C)C(=O)/C=C/c1ccoc1)[C@H](N(C)S(=O)(=O)c1ccccc1)C2` (stereo partly specified), the figure is 0.829 µM; as for `COc1ccc2c3c1O[C@@H]1C3[C@@](O)(CC[C@H]1N(C)C(=O)/C=C/c1ccoc1)[C@H](N(CC1CC1)C(=O)OC(C)(C)C)C2` (stereo partly specified), 0.0728 µM; as for `COc1ccc2c3c1O[C@@H]1C3[C@@H](CC[C@H]1N(C)C(=O)/C=C/c1ccoc1)[C@H](N(CC1CC1)C(=O)OC(C)(C)C)C2` (stereo partly specified), 0.0148 µM.
On the same count and under the same terms, the result for `COc1ccc2c3c1O[C@@H]1C3[C@@H](CC[C@H]1N(C)C(=O)/C=C/c1ccoc1)[C@H](NCC1CC1)C2` (stereo partly specified) reads 0.392 µM; that for `COc1ccc2c3c1O[C@@H]1C3[C@@](O)(CC[C@H]1N(C)C(=O)/C=C/c1ccoc1)[C@H](N(CC1CC1)C(=O)c1ccccc1)C2` (stereo partly specified), 0.275 µM.
On the same count and under the same terms, the result for `COc1ccc2c3c1O[C@@H]1C3[C@@](O)(CC[C@H]1N(C)C(=O)/C=C/c1ccoc1)[C@H](N(CC1CC1)C(=O)C1CC1)C2` (stereo partly specified) reads 1.09 µM.
For `COc1ccc2c3c1O[C@@H]1C3[C@]3(CC[C@H]1N(C)C(=O)/C=C/c1ccoc1)OC(=O)N(CC1CC1)[C@@H]3C2` (stereo partly specified), the Ki in test [1] (read-out: Ki) worked out at 0.538 µM.
